3 compounds from publication PMC4379058, “The Biochemical Properties of the Arabidopsis Ecto-Nucleoside Triphosphate Diphosphohydrolase AtAPY1 Contradict a Direct Role in Purinergic Signaling” (PLoS ONE, 2015) can be followed below.

Holding throughout (test): discontinuous molybdate phosphate release assay
One assay addresses T1, AtAPY1-δTM (Arabidopsis thaliana, UniProt Q9SQG2).
T1 construct: gene APY1; 45 kDa theoretical
T1 sequence (Q9SQG2 67-470): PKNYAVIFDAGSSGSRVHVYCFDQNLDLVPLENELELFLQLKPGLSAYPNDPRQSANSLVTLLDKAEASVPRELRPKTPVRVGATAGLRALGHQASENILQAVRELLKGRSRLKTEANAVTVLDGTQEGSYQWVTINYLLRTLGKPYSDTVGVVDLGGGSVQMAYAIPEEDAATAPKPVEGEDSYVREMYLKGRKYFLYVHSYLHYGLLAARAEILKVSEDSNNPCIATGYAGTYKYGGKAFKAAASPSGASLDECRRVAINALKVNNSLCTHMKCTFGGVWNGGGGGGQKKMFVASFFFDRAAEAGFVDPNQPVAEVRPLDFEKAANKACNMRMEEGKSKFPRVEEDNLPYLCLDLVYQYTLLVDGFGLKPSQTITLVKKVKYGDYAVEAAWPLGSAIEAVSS
It is filed as biochemical.

Assay [1] has as its target T2, AtAPY1 (Arabidopsis thaliana, UniProt Q9SQG2).
T2 sequence (Q9SQG2 1-471): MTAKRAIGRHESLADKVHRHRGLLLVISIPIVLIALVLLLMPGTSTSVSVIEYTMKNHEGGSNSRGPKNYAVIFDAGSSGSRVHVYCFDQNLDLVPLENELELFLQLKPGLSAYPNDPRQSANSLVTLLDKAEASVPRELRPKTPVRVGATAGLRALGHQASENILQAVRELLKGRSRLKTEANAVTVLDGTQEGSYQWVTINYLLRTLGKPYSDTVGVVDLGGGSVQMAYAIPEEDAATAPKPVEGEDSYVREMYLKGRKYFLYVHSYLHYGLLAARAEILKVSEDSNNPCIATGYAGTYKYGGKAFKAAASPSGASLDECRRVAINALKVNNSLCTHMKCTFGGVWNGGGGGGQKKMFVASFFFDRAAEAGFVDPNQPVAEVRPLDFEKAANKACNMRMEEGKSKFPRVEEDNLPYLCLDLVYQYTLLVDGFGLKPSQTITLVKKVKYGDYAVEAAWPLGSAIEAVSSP
In kind it is biochemical. Also noted: gene APY1; full-length with TM, C-terminal linker and His6 tag, HEK293 cells; Ni-NTA elution fraction, not enriched; 52 kDa theoretical.

A further assay has as its target T3, AtAPY1-GFP (Arabidopsis thaliana, UniProt Q9SQG2).
T3 construct: gene APY1; full-length, C-terminal GFP fusion (GFP from residue 472; 80 kDa), 35S transgenic Arabidopsis seedlings, immobilised on anti-GFP plate
T3 sequence (Q9SQG2 1-471): T2 sequence (Q9SQG2 1-471)
In kind it is biochemical. To be noted: 3 mM UDP substrate, 2 mM MgCl2, pH 6.5, 30°C; immobilised enzyme.

The target in assay [2] is T2, AtAPY1. Also noted: gene APY1. To be noted: 3 mM UDP substrate, 1 mM MgCl2, pH 6.5, 30°C.

As usually defined, the % inhibition is how much of the control response was suppressed.

On to `Nc1nc2c(ncn2[C@@H]2O[C@H](COP(=O)(O)OP(=O)(O)O)[C@@H](O)[C@H]2O)c(=O)[nH]1` [GDP], for which the “discontinuous molybdate phosphate release assay” value at AtAPY1-δTM is “AtAPY1 with or without TM is limited to the nucleotides GDP, IDP and UDP”; at AtAPY1 [1] it was “only GDP, IDP and UDP were hydrolyzed by AtAPY1”.
In the case of `O=c1ccn([C@@H]2O[C@H](COP(=O)(O)OP(=O)(O)O)[C@@H](O)[C@H]2O)c(=O)[nH]1` [UDP], the “discontinuous molybdate phosphate release assay” value was “AtAPY1 with or without TM is limited to the nucleotides GDP, IDP and UDP” on AtAPY1-δTM; “only GDP, IDP and UDP were hydrolyzed by AtAPY1” at AtAPY1 [1].
`[O]=[V]([OH])([OH])[OH]` [vanadate]: on AtAPY1-GFP, the “% inhibition” value is “The same inhibition pattern was found for AtAPY1-GFP”. On AtAPY1 [2], the “% inhibition at 1 mM” value was 54%.
